Legend:
Experiment in all cases: relative viability (nuclei count vs DMSO), 5 days (fraction); higher = more cells survive
IPA-3 + Phenformin = compound: C1=CC=C2C(=C1)C=CC(=C2SSC3=C(C=CC4=CC=CC=C43)O)O [IPA-3] + N=C(N)NC(=N)NCCc1ccccc1 [Phenformin] (partner 250 µM)
Procedure, shortened: (§1)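 A single step with final 0.05% Triton X-100, 1% formaldehyde and 1 ug/ml Hoechst fixed the cells and stained nuclei 5 days after treatment. Lung cancer cell lines in 1536-well plates had been treated by pin tool the day after seeding with one drug alone or a fixed anchor-drug dose plus five library-drug doses (not always all listed) in √10 steps, and nuclei were counted on 4× images. Relative viability is the ratio of nuclei in treated wells to nuclei in vehicle wells, taken as the median of duplicate plates.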

Doramapimod + Crizotinib = compound: Cc1ccc(-n2nc(C(C)(C)C)cc2NC(=O)Nc2ccc(OCCN3CCOCC3)c3ccccc23)cc1 [Doramapimod] + C[C@@H](Oc1cc(-c2cnn(C3CCNCC3)c2)cnc1N)c1c(Cl)ccc(F)c1Cl [Crizotinib] (partner 1 µM)
Procedure, shortened: as §1

RAF265 + Lapatinib = compound: Cn1c(Nc2ccc(C(F)(F)F)cc2)nc2cc(Oc3ccnc(-c4ncc(C(F)(F)F)[nH]4)c3)ccc21 [RAF265] + CS(=O)(=O)CCNCc1ccc(-c2ccc3ncnc(Nc4ccc(OCc5cccc(F)c5)c(Cl)c4)c3c2)o1 [Lapatinib] (partner 2 µM)
Procedure, shortened: as §1

Doramapimod + Luminespib = compound: Cc1ccc(-n2nc(C(C)(C)C)cc2NC(=O)Nc2ccc(OCCN3CCOCC3)c3ccccc23)cc1 [Doramapimod] + CCNC(=O)c1noc(-c2cc(C(C)C)c(O)cc2O)c1-c1ccc(CN2CCOCC2)cc1 [Luminespib] (partner 0.01 µM)
Procedure, shortened: as §1

Row | Cell Line | relative viability (IPA-3 + Phenformin; first compound 0.2 µM) | relative viability (IPA-3 + Phenformin; first compound 0.6325 µM) | relative viability (IPA-3 + Phenformin; first compound 2 µM) | relative viability (IPA-3 + Phenformin; first compound 6.325 µM) | relative viability (IPA-3 + Phenformin; first compound 20 µM) | relative viability (Doramapimod + Crizotinib; first compound 0.02 µM) | relative viability (Doramapimod + Crizotinib; first compound 0.06325 µM) | relative viability (Doramapimod + Crizotinib; first compound 0.2 µM) | relative viability (Doramapimod + Crizotinib; first compound 0.6325 µM) | relative viability (Doramapimod + Crizotinib; first compound 2 µM) | relative viability (RAF265 + Lapatinib; first compound 0.01 µM) | relative viability (RAF265 + Lapatinib; first compound 0.03162 µM) | relative viability (RAF265 + Lapatinib; first compound 0.1 µM) | relative viability (RAF265 + Lapatinib; first compound 0.3162 µM) | relative viability (RAF265 + Lapatinib; first compound 1 µM) | relative viability (Doramapimod + Luminespib; first compound 0.02 µM) | relative viability (Doramapimod + Luminespib; first compound 0.06325 µM) | relative viability (Doramapimod + Luminespib; first compound 0.2 µM) | relative viability (Doramapimod + Luminespib; first compound 0.6325 µM) | relative viability (Doramapimod + Luminespib; first compound 2 µM)
1 | HCC-78 | 0.768 | 0.64 | 0.728 | 0.801 | 0.692 | 0.356 | 0.364 | 0.336 | 0.399 | 0.358 | 0.902 | 0.702 | 1.24 | 0.938 | 0.209 |  |  |  |  | 
2 | HCC-366 | 0.715 | 0.584 | 0.636 | 0.567 | 0.752 | 0.612 | 0.513 | 0.487 | 0.451 | 0.398 | 1.03 | 1.08 | 1.23 | 1.02 | 1.05 |  |  |  |  | 
3 | HCC-827 | 0.383 | 0.379 | 0.396 | 0.441 | 0.457 | 0.95 | 0.869 | 0.949 | 0.841 | 0.666 | 0.186 | 0.197 | 0.196 |  | 0.147 | 0.569 | 0.611 | 0.751 | 0.831 | 0.625
4 | HOP-62 | 0.79 | 0.582 | 0.679 | 0.636 | 0.645 | 0.888 | 1.02 | 1.12 | 0.597 | 0.968 | 1.12 |  | 0.934 | 1.05 | 0.792 | 0.957 | 1.04 | 1.07 | 0.931 | 0.797
5 | IA-LM |  |  |  |  |  | 0.856 |  | 0.699 | 0.795 | 0.792 | 0.652 | 0.578 | 0.759 | 0.653 | 0.52 |  |  |  |  | 
6 | LC-2-ad | 0.605 | 0.566 | 0.556 | 0.595 | 0.666 | 0.531 | 0.451 | 0.448 | 0.435 | 0.385 | 0.906 | 1.03 | 0.813 | 0.654 | 0.208 | 1.02 | 1.03 | 1.09 | 1.15 | 0.984
7 | LCLC-97TM1 | 0.449 | 0.447 | 0.407 | 0.315 | 0.46 | 0.326 | 0.357 | 0.31 | 0.338 | 0.209 | 1.12 | 1.05 | 0.443 | 0.856 | 0.219 | 0.789 | 0.689 | 0.795 | 0.705 | 0.537
8 | LCLC-103H | 0.299 | 0.344 | 0.365 | 0.354 | 0.372 | 1.05 | 1.06 | 1.08 | 1.06 | 0.944 |  |  |  |  |  | 0.927 | 0.99 | 0.884 | 1.08 | 0.925
9 | LK-2 | 0.408 | 0.456 | 0.421 | 0.43 | 0.438 | 0.246 | 0.266 | 0.207 | 0.207 | 0.205 | 0.879 | 0.875 | 1.06 | 1.03 | 0.632 | 0.219 | 0.202 | 0.177 | 0.158 | 0.169
